Experimental data taken from PMC12389534, “Unlocking Therapeutic Potential of Novel Thieno-Oxazepine Hybrids as Multi-Target Inhibitors of AChE/BChE and Evaluation Against Alzheimer’s Disease: In Vivo, In Vitro, Histopathological, and Docking Studies” (Pharmaceuticals, 2025).

Columns and labels:
[1] = system: AlCl3-induced AD rat model; experiment: Morris water maze (MWM) test in AlCl3-induced AD rats; format: in vivo; conditions: mean ± SE, n = 6
Experimental: (§1) All procedures were conducted conforming to the applicable National Institutes of Health standards and regulations for the Care and Use of Laboratory Animals. In this experiment, adult male Dawley rats in excellent condition weighing between 300 and 320 g were used. The animals were acquired from the Nile Company for Pharmaceuticals and Chemical Industries (Cairo, Egypt). They were placed in a controlled laboratory setting with unrestricted access to water, a temperature range of 24 to 26 °C, and 12 h a light–dark cycle. Three rats per cage were housed in polycarbonate cages that were individually packed with paper and encased with stainless steel wire.
Spatial learning and memory were inspected using the MWM test. Tap water was poured into a 150 cm diameter by 60 cm high circular water tank until it reached a depth of 30 cm (25 ± 2 °C). To make the water […], non-toxic white dye was applied. The east, west, north, and south quadrants of the pool were essentially separated into four equal sections. At a specific spot in the middle of one quadrant, an escape platform with a diameter of 10 cm was submerged 2 cm below the water’s surface. The platform stood in the exact same quadrant throughout the testing. The rats’ swimming route was recorded by a video camera situated above the pool. From a designated spot in each quadrant, each rat was submerged in the water with its back turned to the pool wall, and it was then left to swim to the platform. The rats received training sessions every day for three days in a row, with four trials conducted in each session. Before the next trial began, the animals were kept a maximum of 60 s to explore the hidden platform. After that, they were permitted to relax on it for 20 s. The rat was positioned gently on the platform and allowed 20 s to rest if it took longer than 60 s to locate it. The time taken to find the platform, or the escape latency, was documented. In order to do a probing test on the fourth day, the platform was detached away, and the rats were given 60 s to swim liberally. The time spent in the assigned quadrant was counted.

[2] = system: AlCl3-induced AD rat model; experiment: Y-maze SAP test in AlCl3-induced AD rats; format: in vivo; conditions: mean ± SE, n = 6
Experimental: as §1
One kind of short-term memory that SAP can represent is spatial working memory. Three arms, designated A, B, or C, were employed in a black hardwood Y-maze with a symmetrical triangular core space. Rats were briefly positioned at the edge of one arm and given 8 min to freely navigate around the maze. When the rat’s rear paws were fully inside the arm, the entries were counted. The following formula was used to determine SAP based on the total number of arm entries and alternations: SAP (%) = [number of alternations/(total arm entries − 2)] × 100 [94].

COc1cc2c(cc1OC)C(=O)C(CC1CCN(Cc3ccccc3)CC1)C2 (stereo not drawn) [Donepezil, reference compound]
Learning (s) ([1]; escape latency): 14.78 ± 0.83 ^ab s
Memory (s) ([1]; time spent in target quadrant): 42.67 ± 0.61 ^ab s
SAP% [2]: 85 ± 0.58 ^ab %
